Our source for the IC50 values is US10442803B2, “Tricyclic heterocycles as bet protein inhibitors” (Incyte Corporation, priority 2013, dated 2019).

Each structure is given as a SMILES string. Structures can show the parent of a compound that is named as a salt. Some results are limits rather than exact numbers.

One assay concerns KMS.12.BM cells. Nature of the assay: KMS.12.BM cell viability assay. The note with it: 72 h; KMS.12.BM human myeloma cells, 3 days, Cell Titer-GLO ATP quantitation; read-out: KMS cellular IC50. It counts as cell-based. Put shortly: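 Human myeloma KMS.12.BM cells, 5000 per well in RPMI/10% FBS, exposed 3 days to compound concentration range. Viability from ATP-based Cell Titer-GLO luminescence; IC50 derived.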
For orientation: Cellular ATP, detected with luciferase, serves as a proxy for viable cell number.
The IC50 is the concentration needed to halve the response being measured. With `Cc1nnc2ccc3c(cc(-c4ccn(CCC#N)n4)n3Cc3cccc(CN4CCC4)c3)n12` [Example 183, 3-(3-{6-[3-(Azetidin-1-ylmethyl)benzyl]-1-methyl-6H-pyrrolo[2,3-e][1,2,4]triazolo[4,3-a]pyridin-7-yl}-1H-pyrazol-1-yl)propanenitrile bis(trifluoroacetate) salt], the IC50 is at most 1000 nM. As to `Cc1nnc2ccc3c(cc(-c4ccn(C)n4)n3Cc3cccc(CN4CCC4)c3)n12` [Example 184, 6-[3-(Azetidin-1-ylmethyl)benzyl]-1-methyl-7-(1-methyl-1H-pyrazol-3-yl)-6H-pyrrolo[2,3-e][1,2,4]triazolo[4,3-a]pyridine bis(trifluoroacetate) salt], the half-inhibitory concentration (IC50) is at most 1000 nM.

With `Cc1nnc2ccc3c(cc(-c4ccn(C)n4)n3Cc3cc(Cl)cc(CN4CCC4)c3)n12` [Example 185, 6-[3-(Azetidin-1-ylmethyl)-5-chlorobenzyl]-1-methyl-7-(1-methyl-1H-pyrazol-3-yl)-6H-pyrrolo[2,3-e][1,2,4]triazolo[4,3-a]pyridine tris(trifluoroacetate) salt], the IC50 was at most 1000 nM. On the same count and under the same terms, then `CCn1ccc(-c2cc3c(ccc4nnc(C)n43)n2Cc2cc(Cl)cc(CN3CCC3)c2)n1` [Example 188, 6-(3-(Azetidin-1-ylmethyl)-5-chlorobenzyl)-7-(1-ethyl-1H-pyrazol-3-yl)-1-methyl-6H-pyrrolo[2,3-e][1,2,4]triazolo[4,3-a]pyridine tris(trifluoroacetate) salt], with at most 1000 nM; and `CCn1ccc(-c2cc3c(ccc4nnc(C)n43)n2Cc2cc(Cl)cc(CN3CCCC3)c2)n1` [Example 189, 6-(3-Chloro-5-(pyrrolidin-1-ylmethyl)benzyl)-7-(1-ethyl-1H-pyrazol-3-yl)-1-methyl-6H-pyrrolo[2,3-e][1,2,4]triazolo[4,3-a]pyridine tris(trifluoroacetate) salt], with at most 1000 nM; and `Cc1nnc2ccc3c(cc(-c4ccn(C)n4)n3Cc3cc(Cl)cc(CN4CCCC4)c3)n12` [Example 190, 6-[3-Chloro-5-(pyrrolidin-1-ylmethyl)benzyl]-1-methyl-7-(1-methyl-1H-pyrazol-3-yl)-6H-pyrrolo[2,3-e][1,2,4]triazolo[4,3-a]pyridine bis(trifluoroacetate) salt], with at most 1000 nM. Turning to `Cc1nnc2ccc3c(cc(-c4ccn(C)n4)n3Cc3cc(Cl)cc(CN(C)C)c3)n12` [Example 191, 1-(3-Chloro-5-{[1-methyl-7-(1-methyl-1H-pyrazol-3-yl)-6H-pyrrolo[2,3-e][1,2,4]triazolo[4,3-a]pyridin-6-yl]methyl}phenyl)-N,N-dimethylmethanamine bis(trifluoroacetate) salt], the IC50 is at most 1000 nM. In the case of `Cc1nnc2ccc3c(cc(-c4ccn(C)n4)n3Cc3cc(Cl)cc(CN4CCOCC4)c3)n12` [Example 192, 6-[3-Chloro-5-(morpholin-4-ylmethyl)benzyl]-1-methyl-7-(1-methyl-1H-pyrazol-3-yl)-6H-pyrrolo[2,3-e][1,2,4]triazolo[4,3-a]pyridine bis(trifluoroacetate) salt], the IC50 is at most 1000 nM. For the compound `Cc1nnc2ccc3c(cc(C4=NCCO4)n3Cc3cccc(Cl)c3)n12` [Example 193, 6-(3-Chlorobenzyl)-7-(4,5-dihydro-1,3-oxazol-2-yl)-1-methyl-6H-pyrrolo[2,3-e][1,2,4]triazolo[4,3-a]pyridine], the half-inhibitory concentration (IC50) is at most 1000 nM. Regarding `Cc1nnc2ccc3c(cc(-c4ncco4)n3Cc3cccc(Cl)c3)n12` [Example 194, 6-(3-Chlorobenzyl)-1-methyl-7-(1,3-oxazol-2-yl)-6H-pyrrolo[2,3-e][1,2,4]triazolo[4,3-a]pyridine trifluoroacetate salt], the IC50 is at most 1000 nM.

Take `Cc1nnc2ccc3c(cc(-c4ncco4)n3Cc3cc(Cl)cc(CN4CCC4)c3)n12` [Example 195, 6-[3-(Azetidin-1-ylmethyl)-5-chlorobenzyl]-1-methyl-7-(1,3-oxazol-2-yl)-6H-pyrrolo[2,3-e][1,2,4]triazolo[4,3-a]pyridine bis(trifluoroacetate) salt]: the IC50 was at most 1000 nM. As for `Cc1nnc2ccc3c(cc(-c4ncco4)n3Cc3cc(Cl)cc(CN4CC(C)(C)C4)c3)n12` [Example 196, 6-{3-Chloro-5-[(3,3-dimethylazetidin-1-yl)methyl]benzyl}-1-methyl-7-(1,3-oxazol-2-yl)-6H-pyrrolo[2,3-e][1,2,4]triazolo[4,3-a]pyridine bis(trifluoroacetate) salt], the IC50 is at most 1000 nM. For `Cc1nnc2ccc3c(cc(-c4ncco4)n3Cc3cc(Cl)cc(CN4CCCC4)c3)n12` [Example 197, 6-[3-Chloro-5-(pyrrolidin-1-ylmethyl)benzyl]-1-methyl-7-(1,3-oxazol-2-yl)-6H-pyrrolo[2,3-e][1,2,4]triazolo[4,3-a]pyridine bis(trifluoroacetate) salt], the IC50 was at most 1000 nM. On to `Cc1nnc2ccc3c(cc(-c4ncco4)n3Cc3cc(Cl)cc(CN4CC(O)C4)c3)n12` [Example 198, 1-(3-Chloro-5-{[1-methyl-7-(1,3-oxazol-2-yl)-6H-pyrrolo[2,3-e][1,2,4]triazolo[4,3-a]pyridin-6-yl]methyl}benzyl)azetidin-3-ol bis(trifluoroacetate) salt], for which the IC50 is at most 1000 nM. As to `Cc1cc2c(cc(Nc3cc[nH]n3)c3nnc(C)n32)n1Cc1ccccc1` [Example 200, 6-Benzyl-1,7-dimethyl-N-1H-pyrazol-3-yl-6H-pyrrolo[2,3-e][1,2,4]triazolo[4,3-a]pyridin-4-amine tris(trifluoroacetate) salt], the IC50 was at most 1000 nM. On to `Cc1cc2c(cc(Nc3ncccn3)c3nnc(C)n32)n1Cc1ccccc1` [Example 201, 6-Benzyl-1,7-dimethyl-N-pyrimidin-2-yl-6H-pyrrolo[2,3-e][1,2,4]triazolo[4,3-a]pyridin-4-amine tris(trifluoroacetate) salt], for which the IC50 was at most 1000 nM.

As for `Cc1cc2c(cc(Nc3ccn(C)n3)c3nnc(C)n32)n1Cc1ccccc1` [Example 202, 6-Benzyl-1,7-dimethyl-N-(1-methyl-1H-pyrazol-3-yl)-6H-pyrrolo[2,3-e][1,2,4]triazolo[4,3-a]pyridin-4-amine tris(trifluoroacetate) salt], the IC50 was at most 1000 nM. For the compound `Cc1cc2c(cc(Nc3nc4ccccc4o3)c3nnc(C)n32)n1Cc1ccccc1` [Example 203, N-1,3-Benzoxazol-2-yl-6-benzyl-1,7-dimethyl-6H-pyrrolo[2,3-e][1,2,4]triazolo[4,3-a]pyridin-4-amine bis(trifluoroacetate) salt], the concentration for half-maximal inhibition (IC50) was at most 1000 nM. On to `Cc1cc2c(cc(O)c3nnc(C)n32)n1Cc1ccccc1` [Example 204, 6-Benzyl-1,7-dimethyl-6H-pyrrolo[2,3-e][1,2,4]triazolo[4,3-a]pyridin-4-ol trifluoroacetate salt], for which the IC50 lay in the range of 1000 to 10000 nM.

Regarding `Cc1cc2c(cc(Nc3nc4ccccc4[nH]3)c3nnc(C)n32)n1Cc1ccccc1` [Example 205, N-1H-Benzimidazol-2-yl-6-benzyl-1,7-dimethyl-6H-pyrrolo[2,3-e][1,2,4]triazolo[4,3-a]pyridin-4-amine trifluoroacetate salt], the 50% inhibitory concentration (IC50) was at most 1000 nM.

As for `Cc1cc2c(cc(NC3CCNCC3)c3nnc(C)n32)n1Cc1ccccc1` [Example 206, 6-Benzyl-1,7-dimethyl-N-piperidin-4-yl-6H-pyrrolo[2,3-e][1,2,4]triazolo[4,3-a]pyridin-4-amine], the concentration for half-maximal inhibition (IC50) is at most 1000 nM. For the compound `Cc1cc2c(cc(NC3CCN(C)CC3)c3nnc(C)n32)n1Cc1ccccc1` [Example 207, 6-Benzyl-1,7-dimethyl-N-(1-methylpiperidin-4-yl)-6H-pyrrolo[2,3-e][1,2,4]triazolo[4,3-a]pyridin-4-amine], the concentration for half-maximal inhibition (IC50) is at most 1000 nM. Take `Cc1cc2c(cc(NCCN3CCOCC3)c3nnc(C)n32)n1Cc1ccccc1` [Example 208, 6-Benzyl-1,7-dimethyl-N-(2-morpholin-4-ylethyl)-6H-pyrrolo[2,3-e][1,2,4]triazolo[4,3-a]pyridin-4-amine]: the half-inhibitory concentration (IC50) was in the range of 1000 to 10000 nM. The same measure, in the same setting: then `COCCNc1cc2c(cc(C)n2Cc2ccccc2)n2c(C)nnc12` [Example 209, 6-Benzyl-N-(2-methoxyethyl)-1,7-dimethyl-6H-pyrrolo[2,3-e][1,2,4]triazolo[4,3-a]pyridin-4-amine], with 1000 to 10000 nM; and `Cc1cc2c(cc(NCCO)c3nnc(C)n32)n1Cc1ccccc1` [Example 210, 2-[(6-Benzyl-1,7-dimethyl-6H-pyrrolo[2,3-e][1,2,4]triazolo[4,3-a]pyridin-4-yl)amino]ethanol], with 1000 to 10000 nM; and `Cc1cc2c(cc(NC3CCN(S(C)(=O)=O)CC3)c3nnc(C)n32)n1Cc1ccccc1` [Example 211, 6-Benzyl-1,7-dimethyl-N-[1-(methylsulfonyl)piperidin-4-yl]-6H-pyrrolo[2,3-e][1,2,4]triazolo[4,3-a]pyridin-4-amine], with at most 1000 nM. With `CCN1CCC(Nc2cc3c(cc(C)n3Cc3ccccc3)n3c(C)nnc23)CC1` [Example 212, 6-Benzyl-N-(1-ethylpiperidin-4-yl)-1,7-dimethyl-6H-pyrrolo[2,3-e][1,2,4]triazolo[4,3-a]pyridin-4-amine], the IC50 was at most 1000 nM. In the case of `Cc1cc2c(cc(NC3CCN(C(C)C)CC3)c3nnc(C)n32)n1Cc1ccccc1` [Example 213, 6-Benzyl-N-(1-isopropylpiperidin-4-yl)-1,7-dimethyl-6H-pyrrolo[2,3-e][1,2,4]triazolo[4,3-a]pyridin-4-amine], the IC50 was at most 1000 nM. On to `Cc1cc2c(cc(NC3CCN(C(=O)OC(C)(C)C)CC3)c3nnc(C)n32)n1Cc1ccccc1` [Example 214, tert-Butyl 4-[(6-benzyl-1,7-dimethyl-6H-pyrrolo[2,3-e][1,2,4]triazolo[4,3-a]pyridin-4-yl)amino]piperidine-1-carboxylate], for which the IC50 lay in the range of 1000 to 10000 nM.

Staying with this assay, now noted: KMS.12.BM human myeloma cells, 3 days, Cell Titer-GLO ATP quantitation; read-out: KMS cellular IC50.
For `Cc1nnc2ccc3c(cc(-c4cc[nH]n4)n3Cc3cccc(CN4CCC4)c3)n12` [Example 182, 6-[3-(Azetidin-1-ylmethyl)benzyl]-1-methyl-7-(1H-pyrazol-3-yl)-6H-pyrrolo[2,3-e][1,2,4]triazolo[4,3-a]pyridine tris(trifluoroaceate) salt], the IC50 was at most 1000 nM.
